Laboratory results as given in patent US12077503B2, “Substituted cyclic amides and their use as herbicides” (FMC CORPORATION, priority 2015, dated 2024).

Legend:
Type in all cases: in vivo
[1] = tested on: ryegrass, Italian (Italian ryegrass, Lolium multiflorum); test: Test A preemergence; details: Preemergence; for Plant response rating, Ryegrass, Italian: 125 g ai/ha, visual injury after approximately 10 d, 0 to 100 scale where 0 is no effect and 100 is complete control; for Ryegrass, Italian plant response rating (0 to 100 scale, 0 is no effect, 100 is complete control): 500 g ai/ha, visual injury approx. 10 d
Source text: (§1) Seeds of plant species selected from barnyardgrass (Echinochloa crus-galli), Kochia (Kochia scoparia), ragweed (common ragweed, Ambrosia elatior), ryegrass, Italian (Italian ryegrass, Lolium multiflorum), crabgrass, large (Digitaria sanguinalis), giant foxtail (Setaria faberii), green foxtail (Setaria viridis), morningglory (Ipomoea spp.), pigweed (Amaranthus retroflexus), velvetleaf (Abutilon theophrasti), wheat (Triticum aestivum), and corn (Zea mays) were planted into a blend of loam soil and sand and treated preemergence with a directed soil spray using test chemicals formulated in anon-phytotoxic solvent mixture which included a surfactant.
(§2) At the same time, plants selected from these crop and weed species and also blackgrass (Alopecurus myosuroides), and Galium (catchweed bedstraw, Galium aparine) were planted in pots containing the same blend of loam soil and sand and treated with postemergence applications of test chemicals formulated in the same manner. Plants ranged in height from 2 to 10 cm and were in the one- to two-leaf stage for the postemergence treatment. Treated plants and untreated controls were maintained in a greenhouse for approximately 10 d, after which time all treated plants were compared to untreated controls and visually evaluated for injury. Plant response ratings, summarized in Table A, are based on a 0 to 100 scale where 0 is no effect and 100 is complete control. A dash (-) response means no test result.

[2] = tested on: giant foxtail (Setaria faberii); test: Test A preemergence; details: Preemergence; for Plant response rating, Foxtail, Giant: 125 g ai/ha, visual injury after approximately 10 d, 0 to 100 scale where 0 is no effect and 100 is complete control; for Foxtail, Giant plant response rating (0 to 100 scale, 0 is no effect, 100 is complete control): 500 g ai/ha, visual injury approx. 10 d
Source text: as §1, §2

[3] = tested on: pigweed (Amaranthus retroflexus); test: Test A preemergence; details: Preemergence; for Plant response rating, Pigweed: 125 g ai/ha, visual injury after approximately 10 d, 0 to 100 scale where 0 is no effect and 100 is complete control; for Pigweed plant response rating (0 to 100 scale, 0 is no effect, 100 is complete control): 500 g ai/ha, visual injury approx. 10 d
Source text: as §1, §2

[4] = tested on: barnyardgrass (Echinochloa crus-galli); test: Test A preemergence; details: Preemergence; for Plant response rating, Barnyardgrass: 125 g ai/ha, visual injury after approximately 10 d, 0 to 100 scale where 0 is no effect and 100 is complete control; for Barnyardgrass plant response rating (0 to 100 scale, 0 is no effect, 100 is complete control): 500 g ai/ha, visual injury approx. 10 d
Source text: as §1, §2

Kochia (Kochia scoparia) [5] = test: Test A preemergence; details: Preemergence; for Plant response rating, Kochia: 125 g ai/ha, visual injury after approximately 10 d, 0 to 100 scale where 0 is no effect and 100 is complete control; for Kochia plant response rating (0 to 100 scale, 0 is no effect, 100 is complete control): 500 g ai/ha, visual injury approx. 10 d
Source text: as §1, §2

[6] = tested on: ragweed (common ragweed, Ambrosia elatior); test: Test A preemergence; details: Preemergence; for Plant response rating, Ragweed: 125 g ai/ha, visual injury after approximately 10 d, 0 to 100 scale where 0 is no effect and 100 is complete control; for Ragweed plant response rating (0 to 100 scale, 0 is no effect, 100 is complete control): 500 g ai/ha, visual injury approx. 10 d
Source text: as §1, §2

[7] = tested on: ryegrass, Italian (Italian ryegrass, Lolium multiflorum); test: Test A postemergence
Source text: as §1, §2

[8] = tested on: blackgrass (Alopecurus myosuroides); test: Test A postemergence
Source text: as §1, §2

[9] = tested on: giant foxtail (Setaria faberii); test: Test A postemergence
Source text: as §1, §2

[10] = tested on: wheat (Triticum aestivum); test: Test A postemergence
Source text: as §1, §2

[11] = tested on: pigweed (Amaranthus retroflexus); test: Test A postemergence
Source text: as §1, §2

[12] = tested on: Galium (catchweed bedstraw, Galium aparine); test: Test A postemergence
Source text: as §1, §2

[13] = tested on: barnyardgrass (Echinochloa crus-galli); test: Test A postemergence
Source text: as §1, §2

Kochia (Kochia scoparia) [14] = test: Test A postemergence
Source text: as §1, §2

corn (Zea mays) = test: Test A postemergence
Source text: as §1, §2

[15] = tested on: ragweed (common ragweed, Ambrosia elatior); test: Test A postemergence
Source text: as §1, §2

[16] = 125 g ai/ha, postemergence, visual rating after approx. 10 d, 0 to 100 scale (0 no effect, 100 complete control)
[17] = Postemergence, 500 g ai/ha, 0 to 100 scale where 0 is no effect and 100 is complete control

| Compound | Plant response rating, Ryegrass, Italian [1] | Ryegrass, Italian plant response rating (0 to 100 scale, 0 is no effect, 100 is complete control) [1] | Plant response rating, Foxtail, Giant [2] | Foxtail, Giant plant response rating (0 to 100 scale, 0 is no effect, 100 is complete control) [2] | Plant response rating, Pigweed [3] | Pigweed plant response rating (0 to 100 scale, 0 is no effect, 100 is complete control) [3] | Plant response rating, Barnyardgrass [4] | Barnyardgrass plant response rating (0 to 100 scale, 0 is no effect, 100 is complete control) [4] | Plant response rating, Kochia (Kochia (Kochia scoparia) [5]) | Kochia plant response rating (0 to 100 scale, 0 is no effect, 100 is complete control) (Kochia (Kochia scoparia) [5]) | Plant response rating, Ragweed [6] | Ragweed plant response rating (0 to 100 scale, 0 is no effect, 100 is complete control) [6] | Plant response rating, Ryegrass, Italian [7, 16] | Plant response rating, Ryegrass, Italian [7, 17] | Plant response rating, Blackgrass [8, 16] | Plant response rating, Blackgrass [8, 17] | Plant response rating, Foxtail, Giant [9, 16] | Plant response rating, Foxtail, Giant [9, 17] | Plant response rating, Wheat [10, 16] | Plant response rating, Wheat [10, 17] | further results |
| --- | --- | --- | --- | --- | --- | --- | --- | --- | --- | --- | --- | --- | --- | --- | --- | --- | --- | --- | --- | --- | --- |
| CN1CC(c2ccc(Br)cc2)C(C(=O)Nc2ccc(F)cc2F)C1=O (stereo not drawn) [Compound 566] | 20 | 70 | 90 | 100 | 80 | 90 | 90 | 100 | 70 | 80 | 60 | 90 | 30 | 60 | 20 | 70 | 90 | 90 | 0 | 40 | Plant response rating, Pigweed [11, 16]: 30; Plant response rating, Pigweed [11, 17]: 60; Plant response rating, Galium [12, 16]: 60; Plant response rating, Galium [12, 17]: 80; Plant response rating, Barnyardgrass [13, 16]: 90; Plant response rating, Barnyardgrass [13, 17]: 90; Plant response rating, Kochia (Kochia (Kochia scoparia) [14]; [16]): 80; Plant response rating, Kochia (Kochia (Kochia scoparia) [14]; [17]): 80; Plant response rating, Corn (corn (Zea mays); [16]): 0; Plant response rating, Corn (corn (Zea mays); [17]): 40; Plant response rating, Ragweed [15, 16]: 0; Plant response rating, Ragweed [15, 17]: 40 |
| CCc1cccc(C2CN(C)C(=O)C2C(=O)Nc2ccc(F)cc2F)c1 (stereo not drawn) [Compound 570] | 60 | 90 | 100 | 100 | 40 | 70 | 100 | 100 | 60 | 80 | 0 | 0 | 50 | 80 | 60 | 80 | 90 | 90 | 30 | 60 | Plant response rating, Pigweed [11, 16]: 20; Plant response rating, Pigweed [11, 17]: 20; Plant response rating, Galium [12, 16]: 50; Plant response rating, Galium [12, 17]: 60; Plant response rating, Barnyardgrass [13, 16]: 100; Plant response rating, Barnyardgrass [13, 17]: 100; Plant response rating, Kochia (Kochia (Kochia scoparia) [14]; [16]): 50; Plant response rating, Kochia (Kochia (Kochia scoparia) [14]; [17]): 70; Plant response rating, Corn (corn (Zea mays); [16]): 60; Plant response rating, Corn (corn (Zea mays); [17]): 80; Plant response rating, Ragweed [15, 16]: 0; Plant response rating, Ragweed [15, 17]: 0 |
| CN1CC(c2cccc(C(F)(F)F)c2)C(C(=O)Nc2ccc(F)cc2F)C1=O (stereo not drawn) [Compound 571] | 60 | 80 | 90 | 100 | 30 | 80 | 90 | 90 | 60 | 80 | 0 | 0 | 60 | 60 | 70 | 80 | 90 | 90 | 60 | 70 | Plant response rating, Pigweed [11, 16]: 20; Plant response rating, Pigweed [11, 17]: 30; Plant response rating, Galium [12, 16]: 50; Plant response rating, Galium [12, 17]: 70; Plant response rating, Barnyardgrass [13, 16]: 90; Plant response rating, Barnyardgrass [13, 17]: 100; Plant response rating, Kochia (Kochia (Kochia scoparia) [14]; [16]): 30; Plant response rating, Kochia (Kochia (Kochia scoparia) [14]; [17]): 60; Plant response rating, Corn (corn (Zea mays); [16]): 60; Plant response rating, Corn (corn (Zea mays); [17]): 80; Plant response rating, Ragweed [15, 16]: 0; Plant response rating, Ragweed [15, 17]: 0 |
